In PubChem BioAssay AID256 (DTP/NCI, 2004):
“And” between values parts separate entries of the source, which are not always exact repeats. Equal values may be shown once. Toxic doses and inconclusive results are not listed. Rule for the calls: active = survival T/C of 150% or more; inactive = T/C below 125% in these data.

System: CD2F1 mice, L1210 leukemia ip, survival T/C
Experiment: NCI In Vivo Anticancer Drug Screen. Data for tumor model L1210 Leukemia (intraperitoneal) in CD2F1 (CDF1) mice
Settings: higher = longer survival
How it was run: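 Compound-dosed mice with transplantable tumor versus matched vehicle controls; endpoint ratio T/C reported.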

[1] = endpoint: mean survival time, dose: 100.0 mg/kg/injection, schedule: Q04DX002 (ip), vehicle: saline with Tween-80
[2] = endpoint: mean survival time, dose: 200.0 mg/kg/injection, schedule: Q04DX002 (ip), vehicle: saline with Tween-80
[3] = endpoint: mean survival time, dose: 100.0 mg/kg/injection, schedule: Q04DX003 (ip), vehicle: saline with Tween-80
[4] = endpoint: mean survival time, dose: 200.0 mg/kg/injection, schedule: Q04DX003 (ip), vehicle: saline with Tween-80
[5] = endpoint: mean survival time, dose: 50.0 mg/kg/injection, schedule: Q01DX009 (ip), vehicle: saline with Tween-80
[6] = endpoint: mean survival time, dose: 100.0 mg/kg/injection, schedule: Q01DX009 (ip), vehicle: saline with Tween-80
[7] = endpoint: mean survival time, dose: 200.0 mg/kg/injection, schedule: Q01DX009 (ip), vehicle: saline with Tween-80
[8] = endpoint: mean survival time, dose: 100.0 mg/kg/injection, schedule: Q01DX001 (ip), vehicle: saline with Tween-80
[9] = endpoint: mean survival time, dose: 200.0 mg/kg/injection, schedule: Q01DX001 (ip), vehicle: saline with Tween-80
[10] = endpoint: mean survival time, dose: 400.0 mg/kg/injection, schedule: Q01DX009 (ip), vehicle: saline with Tween-80
[11] = endpoint: mean survival time, dose: 25.0 mg/kg/injection, schedule: Q01DX009 (ip), vehicle: Klucel (hydroxypropylcellulose) (HPC)
[12] = endpoint: mean survival time, dose: 50.0 mg/kg/injection, schedule: Q01DX009 (ip), vehicle: Klucel (hydroxypropylcellulose) (HPC)
[13] = endpoint: mean survival time, dose: 12.5 mg/kg/injection, schedule: Q01DX009 (ip), vehicle: saline with Tween-80
[14] = endpoint: mean survival time, dose: 25.0 mg/kg/injection, schedule: Q01DX009 (ip), vehicle: saline with Tween-80
[15] = endpoint: mean survival time, dose: 400.0 mg/kg/injection, schedule: Q04DX003 (ip), vehicle: saline with Tween-80

Measured: T/C

OCC1OC(n2c(C(F)(F)F)nc3cc4ccccc4cc32)C(O)C1O (stereo unspecified)
inactive: endpoint: median survival time, dose: 22.5 mg/kg/injection, schedule: Q01DX005 (ip), vehicle: saline with Tween-80 103 % of control | endpoint: median survival time, dose: 45.0 mg/kg/injection, schedule: Q01DX005 (ip), vehicle: saline with Tween-80 103 % of control | endpoint: median survival time, dose: 90.0 mg/kg/injection, schedule: Q01DX005 (ip), vehicle: saline with Tween-80 93 % of control | endpoint: median survival time, dose: 180.0 mg/kg/injection, schedule: Q01DX005 (ip), vehicle: saline with Tween-80 98 % of control

CCCCCCCCCCCCOc1ccc(Cl)cc1
inactive: [1] 90 % of control | [2] 98 % of control | endpoint: mean survival time, dose: 400.0 mg/kg/injection, schedule: Q04DX002 (ip), vehicle: saline with Tween-80 90 % of control

Cc1c2cnccc2c(C)c2c1c1ccccc1n2CCNCc1ccccc1
inactive: [3] 105 % of control | [4] 107 % of control

Nc1ccc(Cl)cc1N
inactive: endpoint: mean survival time, dose: 25.0 mg/kg/injection, schedule: Q01DX009 (ip), vehicle: other 96 % of control | endpoint: mean survival time, dose: 50.0 mg/kg/injection, schedule: Q01DX009 (ip), vehicle: other 102 % of control | endpoint: mean survival time, dose: 75.0 mg/kg/injection, schedule: Q01DX009 (ip), vehicle: other 107 % of control | endpoint: mean survival time, dose: 100.0 mg/kg/injection, schedule: Q01DX009 (ip), vehicle: other 106 % of control | endpoint: mean survival time, dose: 150.0 mg/kg/injection, schedule: Q01DX009 (ip), vehicle: other 112 % of control

O=C(O)/C=C/C(=O)Nc1ccccc1[N+](=O)[O-]
inactive: [5] 102 % of control | [6] 104 % of control | [7] 94 % of control

N#CCN(CC#N)CC#N
inactive: endpoint: mean survival time, dose: 1.56 mg/kg/injection, schedule: Q01DX009 (ip), vehicle: saline 97 % of control | endpoint: mean survival time, dose: 3.13 mg/kg/injection, schedule: Q01DX009 (ip), vehicle: saline 92 % of control | endpoint: mean survival time, dose: 6.25 mg/kg/injection, schedule: Q01DX009 (ip), vehicle: saline 100 % of control

COC1OC(COS(=O)(=O)c2ccc(C)cc2)C(O)C(O)C1O (stereo unspecified)
inactive: [8] 100 % of control | [6] 96 % of control | [9] 95 % of control | [7] 91 % of control | endpoint: mean survival time, dose: 400.0 mg/kg/injection, schedule: Q01DX001 (ip), vehicle: saline with Tween-80 94 % of control | [10] 94 % of control

N#CCc1nc2ccccc2[nH]1
inactive: [11] 98 % of control | [12] 93 % of control

CCCCOCN(COCCCC)C(C)Cc1ccccc1 (stereo unspecified)
inactive: [13] 94 % of control and 97 % of control | [14] 97 % of control and 102 % of control | [5] 93 % of control and 102 % of control | [6] 114 % of control and 95 % of control | [7] 123 % of control and 112 % of control

NC(=O)NC1OC(CO)C(O)C(O)C1O (stereo unspecified)
inactive: endpoint: mean survival time, dose: 100.0 mg/kg/injection, schedule: Q04DX003 (ip), vehicle: saline 100 % of control | endpoint: mean survival time, dose: 200.0 mg/kg/injection, schedule: Q04DX003 (ip), vehicle: saline 100 % of control | endpoint: mean survival time, dose: 400.0 mg/kg/injection, schedule: Q04DX003 (ip), vehicle: saline 105 % of control

O=C1CC(=O)NC(=O)N1
inactive: [6] 102 % of control | [7] 97 % of control | [10] 96 % of control

CCCCCCCCCCCCCCCCCC[N+](C)(C)C (tested in a mixture with another compound)
inactive: endpoint: mean survival time, dose: 1.5 mg/kg/injection, schedule: Q01DX009 (ip), vehicle: saline with Tween-80 100 % of control | endpoint: mean survival time, dose: 3.0 mg/kg/injection, schedule: Q01DX009 (ip), vehicle: saline with Tween-80 94 % of control | endpoint: mean survival time, dose: 6.0 mg/kg/injection, schedule: Q01DX009 (ip), vehicle: saline with Tween-80 94 % of control

CCOC(=O)c1c(C)cc(C)[nH]c1=O
inactive: endpoint: mean survival time, dose: 100.0 mg/kg/injection, schedule: Q04DX003 (ip), vehicle: saline + alcohol 102 % of control | endpoint: mean survival time, dose: 200.0 mg/kg/injection, schedule: Q04DX003 (ip), vehicle: saline + alcohol 107 % of control | endpoint: mean survival time, dose: 400.0 mg/kg/injection, schedule: Q04DX003 (ip), vehicle: saline + alcohol 113 % of control

COc1cccc(C(=O)c2ccccc2NC(C)=O)c1
inactive: [6] 101 % of control | [7] 103 % of control | [10] 98 % of control

O=C(/C=C1\C(=O)Nc2ccccc21)/C=C1/C(=O)Nc2ccccc21
inactive: [11] 97 % of control | [12] 104 % of control | endpoint: mean survival time, dose: 100.0 mg/kg/injection, schedule: Q01DX009 (ip), vehicle: Klucel (hydroxypropylcellulose) (HPC) 95 % of control

CC/C=N/Nc1ccc([N+](=O)[O-])cc1[N+](=O)[O-]
inactive: [13] 91 % of control | [14] 92 % of control | [5] 93 % of control

O=C1c2ccccc2C(=O)C1c1cc2ccccc2cn1
inactive: endpoint: mean survival time, dose: 50.0 mg/kg/injection, schedule: Q04DX002 (ip), vehicle: saline with Tween-80 91 % of control | [8] 87 % of control | [1] 95 % of control | [9] 91 % of control | [2] 91 % of control

Cc1ccc(S(=O)(=O)N2CCCCC2)cc1
inactive: endpoint: mean survival time, dose: 50.0 mg/kg/injection, schedule: Q01DX009 (ip), vehicle: saline 91 % of control | endpoint: mean survival time, dose: 100.0 mg/kg/injection, schedule: Q01DX009 (ip), vehicle: saline 93 % of control | endpoint: mean survival time, dose: 200.0 mg/kg/injection, schedule: Q01DX009 (ip), vehicle: saline 93 % of control

Nc1ccc(CCC(=O)Nc2ccc(S(=O)(=O)F)cc2)cc1
inactive: endpoint: mean survival time, dose: 100.0 mg/kg/injection, schedule: Q01DX001 (ip), vehicle: saline 97 % of control | endpoint: mean survival time, dose: 200.0 mg/kg/injection, schedule: Q01DX001 (ip), vehicle: saline 102 % of control | endpoint: mean survival time, dose: 400.0 mg/kg/injection, schedule: Q01DX001 (ip), vehicle: saline 97 % of control

ClC1(Cl)OC(Cl)(Cl)C(Cl)(Cl)OC1(Cl)Cl
inactive: endpoint: mean survival time, dose: 50.0 mg/kg/injection, schedule: Q04DX003 (ip), vehicle: other 95 % of control | endpoint: mean survival time, dose: 100.0 mg/kg/injection, schedule: Q04DX003 (ip), vehicle: other 91 % of control | endpoint: mean survival time, dose: 200.0 mg/kg/injection, schedule: Q04DX003 (ip), vehicle: other 97 % of control

Cc1ccc2c(c1)=N/C(=N\c1nc(O)c(O)[nH]1)N=2
inactive: [6] 104 % of control | [7] 92 % of control | [10] 104 % of control

O=C(O)CCN1C(=O)c2ccccc2C1=O
inactive: [3] 98 % of control | [4] 97 % of control | [15] 97 % of control

C/C=C1\CN2CCC34c5ccccc5N5C(=O)CCC(C1CC23)C54 (stereo unspecified)
inactive: endpoint: mean survival time, dose: 5.0 mg/kg/injection, schedule: Q01DX001 (ip), vehicle: saline 98 % of control | endpoint: mean survival time, dose: 10.0 mg/kg/injection, schedule: Q01DX001 (ip), vehicle: saline 98 % of control | endpoint: mean survival time, dose: 20.0 mg/kg/injection, schedule: Q01DX001 (ip), vehicle: saline 98 % of control | endpoint: mean survival time, dose: 40.0 mg/kg/injection, schedule: Q01DX001 (ip), vehicle: saline 100 % of control

COc1ccc(N2C(=O)CSC2=S)cc1
inactive: [3] 102 % of control | [4] 96 % of control | [15] 102 % of control
